What was measured:
[1] = biological target: T1, Alpha-1D adrenergic receptor (Homo sapiens, UniProt P25100); type: cell membranes, HEK293, Membrane; details: hek293; also: in other assays of this panel Not Active means under 50% inhibition at 10 µM
T1 sequence (P25100 whole entry): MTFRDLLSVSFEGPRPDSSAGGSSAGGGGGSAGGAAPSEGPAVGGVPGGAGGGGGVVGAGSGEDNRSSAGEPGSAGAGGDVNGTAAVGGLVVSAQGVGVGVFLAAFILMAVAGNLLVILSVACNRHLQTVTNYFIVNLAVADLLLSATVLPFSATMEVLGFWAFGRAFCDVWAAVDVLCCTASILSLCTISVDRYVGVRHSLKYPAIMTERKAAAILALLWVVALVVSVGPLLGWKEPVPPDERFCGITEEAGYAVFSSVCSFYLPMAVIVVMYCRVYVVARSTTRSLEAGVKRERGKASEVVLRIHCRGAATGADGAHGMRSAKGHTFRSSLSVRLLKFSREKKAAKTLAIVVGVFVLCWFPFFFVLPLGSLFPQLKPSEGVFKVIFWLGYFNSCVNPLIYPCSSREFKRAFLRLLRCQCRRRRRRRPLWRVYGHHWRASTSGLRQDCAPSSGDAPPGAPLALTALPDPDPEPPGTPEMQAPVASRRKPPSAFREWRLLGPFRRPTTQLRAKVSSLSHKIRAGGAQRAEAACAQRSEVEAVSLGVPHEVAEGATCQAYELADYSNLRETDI

Cannabinoid receptor 1 = Cannabinoid receptor 1 (Homo sapiens, UniProt P21554); type: cell membranes, Chem-1, Membrane; details: chem-1; also: in other assays of this panel Not Active means under 50% inhibition at 10 µM
Endothelin-1 receptor = biological target: T2, Endothelin-1 receptor (Homo sapiens, UniProt P25101); type: cell membranes, Membrane; details: cho-k1; also: in other assays of this panel Not Active means under 50% inhibition at 10 µM
T2 sequence (P25101 whole entry): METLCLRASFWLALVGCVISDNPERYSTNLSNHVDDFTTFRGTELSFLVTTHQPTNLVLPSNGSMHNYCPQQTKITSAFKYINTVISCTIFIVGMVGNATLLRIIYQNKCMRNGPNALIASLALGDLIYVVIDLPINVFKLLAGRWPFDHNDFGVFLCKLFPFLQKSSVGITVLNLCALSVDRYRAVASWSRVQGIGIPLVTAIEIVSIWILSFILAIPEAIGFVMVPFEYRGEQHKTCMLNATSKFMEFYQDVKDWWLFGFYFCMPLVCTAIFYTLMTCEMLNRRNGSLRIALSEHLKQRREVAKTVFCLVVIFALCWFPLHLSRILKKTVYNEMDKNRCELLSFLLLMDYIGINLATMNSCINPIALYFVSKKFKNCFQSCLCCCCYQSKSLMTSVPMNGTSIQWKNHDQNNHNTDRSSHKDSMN

[2] = DRUGMATRIX: GABAA, Chloride Channel, TBOB radioligand binding (ligand: [3H] TBOB); type: cell membranes, Rattus norvegicus, Wistar, Cerebral cortex, Membrane; details: Not Active = under 50% inhibition at 10 µM
[3] = biological target: T3, Muscarinic acetylcholine receptor M5 (Homo sapiens, UniProt P08912); type: cell membranes, CHO-K1, Membrane; details: cho-k1; also: in other assays of this panel Not Active means under 50% inhibition at 10 µM
T3 sequence (P08912 whole entry): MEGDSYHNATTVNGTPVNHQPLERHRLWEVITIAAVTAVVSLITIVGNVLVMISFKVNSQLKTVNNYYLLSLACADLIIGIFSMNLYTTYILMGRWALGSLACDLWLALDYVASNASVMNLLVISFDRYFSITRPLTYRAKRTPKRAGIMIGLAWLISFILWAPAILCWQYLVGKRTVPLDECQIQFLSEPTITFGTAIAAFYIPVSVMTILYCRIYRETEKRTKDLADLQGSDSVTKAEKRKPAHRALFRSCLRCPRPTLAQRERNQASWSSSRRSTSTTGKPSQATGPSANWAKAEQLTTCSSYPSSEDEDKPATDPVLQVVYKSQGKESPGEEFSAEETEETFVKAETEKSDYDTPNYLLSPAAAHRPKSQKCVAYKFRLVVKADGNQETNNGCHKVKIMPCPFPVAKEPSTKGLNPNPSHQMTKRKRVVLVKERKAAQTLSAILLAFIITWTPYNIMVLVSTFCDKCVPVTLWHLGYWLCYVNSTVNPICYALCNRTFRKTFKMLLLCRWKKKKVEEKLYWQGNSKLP

[4] = biological target: cGMP-specific 3',5'-cyclic phosphodiesterase (Homo sapiens, UniProt O76074); test: DRUGMATRIX: Phosphodiesterase PDE5 enzyme inhibition (substrate: [3H]cGMP + cGMP); type: tissue-based, Platelet; details: platelet; Not Active = under 50% inhibition at 10 µM
Adenosine receptor A2a = Adenosine receptor A2a (Homo sapiens, UniProt P29274); test: DRUGMATRIX: Adenosine A2A radioligand binding (ligand: […]); type: cell membranes, HEK293, Membrane; details: hek293; Not Active = under 50% inhibition at 10 µM
Adenosine receptor A2a, sequence (P29274 whole entry): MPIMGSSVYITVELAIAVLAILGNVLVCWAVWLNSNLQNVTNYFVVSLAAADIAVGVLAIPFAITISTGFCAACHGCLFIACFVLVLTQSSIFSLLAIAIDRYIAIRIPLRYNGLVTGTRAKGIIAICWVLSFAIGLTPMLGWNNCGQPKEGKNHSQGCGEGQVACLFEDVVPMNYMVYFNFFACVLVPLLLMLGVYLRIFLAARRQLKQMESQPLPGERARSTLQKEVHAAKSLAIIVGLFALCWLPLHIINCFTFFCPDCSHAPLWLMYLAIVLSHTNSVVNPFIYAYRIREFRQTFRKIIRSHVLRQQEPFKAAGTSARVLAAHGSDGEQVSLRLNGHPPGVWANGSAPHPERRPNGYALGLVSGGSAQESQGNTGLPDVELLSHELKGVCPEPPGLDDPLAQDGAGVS

Cannabinoid receptor 1, sequence (P21554 whole entry): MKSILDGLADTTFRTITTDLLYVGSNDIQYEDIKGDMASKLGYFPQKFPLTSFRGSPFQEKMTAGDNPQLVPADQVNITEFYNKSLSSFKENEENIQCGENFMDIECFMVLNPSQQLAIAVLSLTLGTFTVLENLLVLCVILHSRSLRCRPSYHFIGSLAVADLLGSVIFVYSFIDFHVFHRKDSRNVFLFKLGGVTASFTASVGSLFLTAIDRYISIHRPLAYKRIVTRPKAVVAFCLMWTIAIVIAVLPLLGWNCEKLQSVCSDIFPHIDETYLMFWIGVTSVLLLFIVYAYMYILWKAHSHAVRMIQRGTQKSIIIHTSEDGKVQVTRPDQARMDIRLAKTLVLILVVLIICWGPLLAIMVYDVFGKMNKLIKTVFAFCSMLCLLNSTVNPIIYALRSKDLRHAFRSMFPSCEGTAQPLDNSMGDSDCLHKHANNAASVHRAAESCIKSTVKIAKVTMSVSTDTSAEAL

CO[C@@]12[C@H](COC(N)=O)C3=C(C(=O)C(C)=C(N)C3=O)N1C[C@@H]1N[C@@H]12 [MITOMYCIN]
Not Active: IC50 [1] | IC50 (Cannabinoid receptor 1) | IC50 (Endothelin-1 receptor) | IC50 [2] | Ki [2] | IC50 [3] | IC50 [4] | IC50 (Adenosine receptor A2a)
